Structures can show the parent of a compound that is named as a salt.

For orientation: melting point means the temperature of the solid-liquid transition. `COc1cc(-c2nc3ccccc3o2)ccc1-c1ccccn1` (as salt: hydrochloride) [Example 54, 2-(3-Methoxy-4-pyridin-2-ylphenyl)-1,3-benzoxazole hydrochloride salt]: the melting point was found to be 215 °C. To `N#CCc1ccc(-c2nc3ccccc3o2)cc1Br` [Example 1, [4-(1,3-Benzoxazol-2-yl)-2-bromnophenyl]acetonitrile] belongs 190 to 191 °C; to `N#CCc1ccc(-c2nc3ccccc3o2)cc1-c1cccc(C#N)c1` [Example 4, 5′-(1,3-Benzoxazol-2-yl)-2′-(cyanomethyl)-1,1′-biphenyl-3-carbonitrile], 175 to 176 °C; to `N#CCc1ccc(-c2nc3ccccc3o2)cc1[N+](=O)[O-]` [Example 6, [4-(1,3-Benzoxazol-2-yl)-2-nitrophenyl]acetonitrile], 203 °C. Next, `N#CCc1ccc(-c2nc3ccccc3o2)cc1N` [Example 7, [2-Amino-4-(1,3-benzoxazol-2-yl)phenyl]acetonitrile]: 198 to 199 °C.
